# Measurements published in patent US20090291883A1, “COMBINATION OF AN IMMUNOSUPPRESSIVE AGENT AND NONSTEROIDAL ANTI -INFLAMMATORY DRUGS TO TREAT DISEASE” (BOSTON MEDICAL CENTER CORPORATION, priority 2006, published 2009).
# Assays:
# [1] = tested on: villous adenomas of the cecum; conditions: 30 mg weekly, for up to 20 months; cited from earlier work
# sporadic colonic polyps = conditions: cited from earlier work; for regression of adenomatous polyps, small pilot study: sporadic colonic polyps
# [2] = tested on: MC-26 colorectal cancer cells; assay: Subcutaneous MC-26 colorectal cancer tumor growth in BALB/c mice; format: in vivo
# Procedure: (§1) A second control group included mice that were not injected with tumor cells and received no treatment.
# (§2) Skin from donor B6 black mice was transplanted to recipient white BALB/c mice. […] To determine the effects of these agents on secondary tumor development, BALB/c mice were also injected subcutaneously with MC-26 colorectal cancer cells and were treated for 22 days with the above regimens. A second control group included mice that were not injected with tumor cells and received no treatment.
# (§3) The inventors subcutaneously injected 2×10^4 MC-26 cells (mouse colorectal adenocarcinoma cell line) into the flanks of 6-8 week old BALB/c mice. Tumor volume was measured at regular intervals during a period of 22 days. […] Skin xenografts from donor black B6 mice were simultaneously transplanted to the backs of the mice.
# [3] = Body weight change of MC-26 tumor-bearing BALB/c mice, day 0 to day 22; format: in vivo; conditions: compared with mice not injected with tumor cells and untreated
# Procedure: as §1, §2
# [4] = tested on: skin graft from donor B6 black mice; assay: Skin graft from donor B6 black mice transplanted to recipient BALB/c mice: graft rejection/survival; format: in vivo
# Procedure: as §2, §3
# colorectal cancer = conditions: chronic aspirin use; cited from earlier work
# colonic polyps = conditions: daily dose of 300 mg, taken systemically; cited from earlier work
# flat colorectal mucosa = conditions: after treatment with sulindac, FAP subjects; cited from earlier work
# [5] = tested on: HT-29 colon adenocarcinoma cell line; conditions: following sulindac administration; cited from earlier work
# [6] = given orally as a tablet; cited from earlier work
smiles,measurement,setting,value
CN1C(C(=O)Nc2ccccn2)=C(O)c2ccccc2S1(=O)=O [piroxicam],regression of pre-malignant adenomas,[1],dramatic and sustained regression
same,"regression of adenomatous polyps, small pilot study",sporadic colonic polyps,no similar regression
CS(=O)(=O)c1ccc(C2=C(c3ccccc3)C(=O)OC2)cc1 [rofecoxib],tumor growth / tumor size (FIG. 1),"[2]; Example 1, treated for 22 days, rofecoxib chow equivalent to a human dose of 25 mg per day",significantly smaller
same,tumor growth / tumor size (FIG. 4),"[2]; Example 2, treated for 22 days, cyclosporine 20 mg/kg, rofecoxib chow equivalent to a human dose of 25 mg per day",significantly smaller
same,tumor volume (TV),"[2]; Example 3, 2×10^4 MC-26 cells s.c. in flank, 22 days, rofecoxib chow 0.01%, cyclosporine 20 mg/kg, skin graft transplanted simultaneously, control chow 920.81±511.10",394.75±273.37 mm^3
same,tumor volume / tumor growth compared with control chow,"[2]; Example 3, 22 days",markedly reduced
same,growth and body weight gain (FIG. 2),"[3]; Example 1, day 0 to day 22",continued to grow and gained weight similarly to the control group
same,growth and body weight gain,"[3]; Example 2, 22 days",continued to grow and gained weight similarly to the control group
same,skin graft rejection (FIG. 3),"[4]; Example 2, 22 days, cyclosporine 20 mg/kg, rofecoxib chow equivalent to a human dose of 25 mg per day",rejected the skin graft
same,skin graft survival at day 15,"[4]; Example 3, day 15, cyclosporine 20 mg/kg, rofecoxib chow 0.01%, control group 0%",0%
same,time by which the skin graft had failed,"[4]; Example 3, rofecoxib chow 0.01%",≤ 11 days
CC(=O)Oc1ccccc1C(=O)O [aspirin],reduction in the incidence of colorectal cancer,colorectal cancer,50-70%
CC1=C(CC(=O)O)c2cc(F)ccc2/C1=C\c1ccc([S+](C)[O-])cc1 (stereo not drawn) [sulindac],number and size of colonic polyps,colonic polyps,significantly decreased
same,"regression / progression of sporadic colorectal adenomas, multicenter study","sporadic colonic polyps; 300 mg daily or 150 mg daily for one year, regardless of dose, nearly 100 subjects",induced regressions and prevented the progression
same,"regression of adenomatous polyps, small pilot study",sporadic colonic polyps,no similar regression
same,colonic mucosal apoptosis,flat colorectal mucosa,increased levels
same,apoptosis in HT-29 cells,[5],induction of apoptosis
same,time to peak plasma concentration after dosing,[6],about two
